Source: US11427548B2 (Arvinas Operations, Inc., priority 2015, dated 2022)
Like-named read-outs stand apart in the source and are kept apart here.

Biological target: T1, Androgen Receptor (Homo sapiens, UniProt P10275)
T1 construct: endogenous in cells; host or cells: VCaP cells
T1 sequence (P10275 1-920): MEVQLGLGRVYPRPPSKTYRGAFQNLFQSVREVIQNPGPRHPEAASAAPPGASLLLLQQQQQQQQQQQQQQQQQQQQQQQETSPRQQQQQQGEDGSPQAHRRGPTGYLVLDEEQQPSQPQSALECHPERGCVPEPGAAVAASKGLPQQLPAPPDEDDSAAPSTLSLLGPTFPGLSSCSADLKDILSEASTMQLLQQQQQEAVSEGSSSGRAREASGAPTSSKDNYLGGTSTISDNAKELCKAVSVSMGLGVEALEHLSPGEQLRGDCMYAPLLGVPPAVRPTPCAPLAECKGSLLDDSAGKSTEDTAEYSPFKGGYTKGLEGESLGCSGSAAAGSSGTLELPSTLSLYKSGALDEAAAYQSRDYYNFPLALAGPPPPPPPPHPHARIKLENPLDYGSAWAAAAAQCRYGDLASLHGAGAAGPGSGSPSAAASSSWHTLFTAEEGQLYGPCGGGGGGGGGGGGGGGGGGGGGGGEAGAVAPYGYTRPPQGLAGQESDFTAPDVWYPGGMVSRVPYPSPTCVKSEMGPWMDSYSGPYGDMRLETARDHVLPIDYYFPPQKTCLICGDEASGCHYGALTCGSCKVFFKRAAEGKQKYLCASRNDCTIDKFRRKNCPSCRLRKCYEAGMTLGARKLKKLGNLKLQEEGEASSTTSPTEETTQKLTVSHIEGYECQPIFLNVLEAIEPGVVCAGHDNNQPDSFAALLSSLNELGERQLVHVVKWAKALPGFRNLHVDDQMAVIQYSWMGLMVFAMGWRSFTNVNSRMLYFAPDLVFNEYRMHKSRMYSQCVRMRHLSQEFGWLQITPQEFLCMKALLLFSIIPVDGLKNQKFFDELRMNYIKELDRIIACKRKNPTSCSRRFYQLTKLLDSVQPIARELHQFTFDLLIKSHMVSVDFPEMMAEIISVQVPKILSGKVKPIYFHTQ
Assay: Androgen Receptor ELISA assay (PathScan AR ELISA) in VCaP cells: AR degradation, Dmax and DC50
Type: cell-based
How it was run: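 VCaP cells, 30,000/well, grown ≥3 days in phenol red-free RPMI with 5% charcoal-stripped FBS; compound added in 0.1% DMSO with 0.1 nM R1881, 7 half-log doses, 24 h. Lysate AR quantified by PathScan sandwich ELISA, HRP/TMB read at 450 nm, giving DC50 and Dmax.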

[1] = VCaP cells; Table 36; read-out: VCaP DC50
[2] = VCaP, VCaP cells; Table 36; read-out: VCaP Dmax (%)
[3] = VCaP, read-out: VCaP Dmax (%), VCaP cells; Table 36

SMILES	DC50 [1] [nM]	Dmax (VCaP, read-out: VCaP Dmax (%)) [%]	other results
Cc1ncsc1-c1ccc([C@@H](NC(=O)[C@@H]2C[C@@H](O)CN2C(=O)C(NC(=O)COCCN2CCN(c3ccc(C(=O)N[C@H]4C(C)(C)[C@H](Oc5ccc(C#N)c(C(F)(F)F)c5)C4(C)C)cn3)CC2)C(C)(C)C)C2COC2)cc1 (stereo partly drawn) [Example 705, N-((1r,3r)-3-(4-cyano-3-(trifluoromethyl)phenoxy)-2,2,4,4-tetramethylcyclobutyl)-6-(4-(2-(2-(((S)-1-((2S,4R)-4-hydroxy-2-(((S)-(4-(4-methylthiazol-5-yl)phenyl)(oxetan-3-yl)methyl)carbamoyl)pyrrolidin-1-yl)-3,3-dimethyl-1-oxobutan-2-yl)amino)-2-oxoethoxy)ethyl)pipera-zin-1-yl)nicotinamide]	< 50		Dmax [2]: 26 to 50%
Cc1ncsc1-c1ccc([C@H](C)NC(=O)[C@@H]2C[C@@H](O)CN2C(=O)[C@@H](NC(=O)CN2CCC(O[C@H]3C[C@H](Nc4ccc(C(=O)N[C@H]5C(C)(C)[C@H](Oc6ccc(C#N)c(Cl)c6)C5(C)C)cc4F)C3)CC2)C(C)(C)C)cc1 [Example 706, (2S,4R)-1-((S)-2-(2-(4-((1R,3S)-3-((4-(((1r,3R)-3-(3-chloro-4-cyanophenoxy)-2,2,4,4-tetramethylcyclobutyl)carbamoyl)-2-fluorophenyl)amino)cyclobutoxy)piperidin-1-yl)acetamido)-3,3-dimethylbutanoyl)-4-hydroxy-N-((S)-1-(4-(4-methylthiazol-5-yl)phenyl)ethyl)pyrrolidine-2-carboxamide]	< 50		Dmax [3]: > 71%
CO[C@@H]1C[C@@H](C(=O)N[C@@H](C)c2ccc(-c3scnc3C)cc2)N(C(=O)[C@@H](NC(=O)CN2CCN(CCCc3ccc(C(=O)N[C@H]4C(C)(C)[C@H](Oc5ccc(C#N)c(C(F)(F)F)c5)C4(C)C)cc3)CC2)C(C)(C)C)C1 [Example 708, (2S,4R)-1-((S)-2-(2-(4-(3-(4-(((1r,3r)-3-(4-cyano-3-(trifluoromethyl)phenoxy)-2,2,4,4-tetramethylcyclobutyl)carbamoyl)phenyl)propyl)piperazin-1-yl)acetamido)-3,3-dimethylbutanoyl)-4-methoxy-N-((S)-1-(4-(4-methylthiazol-5-yl)phenyl)ethyl)pyrrolidine-2-carboxamide]	> 501	< 25	
CO[C@@H]1C[C@@H](C(=O)N(C)Cc2ccc(-c3scnc3C)cc2)N(C(=O)[C@@H](N(C)C(=O)COCCCCCN(C)c2ccc(C(=O)N(C)[C@H]3C(C)(C)[C@H](Oc4ccc(C#N)c(C(F)(F)F)c4)C3(C)C)nc2)C(C)(C)C)C1 [Example 709, N-((1r,3r)-3-(4-cyano-3-(trifluoromethyl)phenoxy)-2,2,4,4-tetramethylcyclobutyl)-5-((5-(2-(((S)-1-((2S,4R)-4-methoxy-2-(methyl(4-(4-methylthiazol-5-yl)benzyl)carbamoyl)pyrrolidin-1-yl)-3,3-dimethyl-1-oxobutan-2-yl)(methyl)amino)-2-oxoethoxy)pentyl)(meth-yl)amino)-N-methylpicolinamide]	> 501		Dmax [2]: < 25%
Cc1ncsc1-c1ccc(CNC(=O)[C@@H]2C[C@@H](O)CN2C(=O)[C@@H](NC(=O)CN2CCN(CCCc3cn(-c4ccc(C(=O)N[C@H]5C(C)(C)[C@H](Oc6ccc(C#N)c(C(F)(F)F)c6)C5(C)C)cc4)nn3)CC2)C(C)(C)C)cc1 [Example 710, (2S,4R)-1-((S)-2-(2-(4-(3-(1-(4-(((1r,3r)-3-(4-cyano-3-(trifluoromethyl)phenoxy)-2,2,4,4-tetramethylcyclobutyl)carbamoyl)phenyl)-1H-1,2,3-triazol-4-yl)propyl)piperazin-1-yl)acetamido)-3,3-dimethylbutanoyl)-4-hydroxy-N-(4-(4-methylthiazol-5-yl)benzyl)pyrrolidine-2-carboxamide]	< 50	51 to 70	
Cc1ncsc1-c1ccc(CNC(=O)[C@@H]2C[C@@H](O)CN2C(=O)C(NC(=O)COCCN2CCN(c3ccc(C(=O)N[C@H]4C(C)(C)[C@H](Oc5ccc(C#N)c(C(F)(F)F)c5)C4(C)C)cn3)C(=O)C2)C(C)(C)C)cc1 (stereo partly drawn) [Example 711, N-((1r,3r)-3-(4-cyano-3-(trifluoromethyl)phenoxy)-2,2,4,4-tetramethylcyclobutyl)-6-(4-(2-(2-(((S)-1-((2S,4R)-4-hydroxy-2-((4-(4-methylthiazol-5-yl)benzyl)carbamoyl)pyrrolidin-1-yl)-3,3-dimethyl-1-oxobutan-2-yl)amino)-2-oxoethoxy)ethyl)-2-oxopiperazin-1-yl)nicotinamide]	< 50		VCaP Dmax (%) (VCaP cells; Table 36): + (Dmax ≤ 25%)
Cc1ncsc1-c1ccc([C@H](NC(=O)[C@@H]2C[C@@H](O)CN2C(=O)[C@@H](NC(=O)CN2CCN(CCCc3ccc(C(=O)N[C@H]4C(C)(C)[C@H](Oc5ccc(C#N)c(C(F)(F)F)c5)C4(C)C)cc3)CC2)C(C)(C)C)C2COC2)cc1 [Example 712, (2S,4R)-1-((S)-2-(2-(4-(3-(4-(((1r,3r)-3-(4-cyano-3-(trifluoromethyl)phenoxy)-2,2,4,4-tetramethylcyclobutyl)carbamoyl)phenyl)propy)piperazin-1-yl)acetamido)-3,3-dimethylbutanoyl)-4-hydroxy-N-((R)-(4-(4-methylthiazol-5-yl)phenyl)(oxetan-3-yl)methyl)pyrrolidine-2-carboxamide]	> 501	< 25	
Cc1ncsc1-c1ccc([C@@H](NC(=O)[C@@H]2C[C@@H](O)CN2C(=O)[C@@H](NC(=O)CN2CCN(CCCc3ccc(C(=O)N[C@H]4C(C)(C)[C@H](Oc5ccc(C#N)c(C(F)(F)F)c5)C4(C)C)cc3)CC2)C(C)(C)C)C2COC2)cc1 [Example 713, (2S,4R)-1-((S)-2-(2-(4-(3-(4-(((1r,3r)-3-(4-cyano-3-(trifluoromethyl)phenoxy)-2,2,4,4-tetramethylcyclobutyl)carbamoyl)phenyl)propyl)piperazin-1-yl)acetamido)-3,3-dimethylbutanoyl)-4-hydroxy-N-((S)-(4-(4-methylthiazol-5-yl)phenyl)(oxetan-3-yl)methyl)pyrrolidine-2-carboxamide]	< 50	< 25	
Cc1ncsc1-c1ccc([C@H](C)NC(=O)[C@@H]2C[C@@H](O)CN2C(=O)[C@@H](NC(=O)CCCN(C)[C@H](C(=O)N[C@H](C(=O)N(C)CCOc2ccc(N3C(=S)N(c4ccc(C#N)c(C(F)(F)F)c4)C(=O)C3(C)C)cc2)C(C)C)C(C)C)C(C)(C)C)cc1 [Example 714, (2S,4R)-1-((5S,8S,15S)-15-(tert-butyl)-1-(4-(3-(4-cyano-3-(trifluoromethyl)phenyl)-5,5-dimethyl-4-oxo-2-thioxoimidazolidin-1-yl)phenoxy)-5,8-diisopropyl-3,9-dimethyl-4,7,13-trioxo-3,6,9,14-tetraazahexadecan-16-oyl)-4-hydroxy-N-((S)-1-(4-(4-methylthiazol-5-yl)phenyl)ethyl)pyrrolidine-2-carboxamide]		< 25	DC50 (read-out: VCaP DC50; VCaP cells; Table 36): > 501 nM
Cc1ncsc1-c1ccc([C@H](C)NC(=O)[C@@H]2C[C@@H](O)CN2C(=O)[C@@H](NC(=O)CN2CCN(CCCN3CCN(c4ccc(C(=O)N[C@H]5C(C)(C)[C@H](Oc6ccc(C#N)c(C#N)c6)C5(C)C)cn4)CC3)CC2)C(C)(C)C)cc1 [Example 715, N-((1r,3r)-3-(3,4-dicyanophenoxy)-2,2,4,4-tetramethylcyclobutyl)-6-(4-(3-(4-(2-(((S)-1-((2S,4R)-4-hydroxy-2-(((S)-1-(4-(4-methylthiazol-5-yl)phenyl)ethyl)carbam-oyl)pyrrolidin-1-yl)-3,3-dimethyl-1-oxobutan-2-yl)amino)-2-oxoethyl)piperazin-1-yl)propyl)piperazin-1-yl)nicotinamide]	< 50		Dmax [3]: 51 to 70%
Cc1nc(O[C@H]2C(C)(C)[C@H](NC(=O)c3ccc(N4CCN(CCCN5CCN(CC(=O)O[C@H](C(=O)N6C[C@H](O)C[C@H]6C(=O)N[C@@H](C)c6ccc(-c7scnc7C)cc6)C(C)(C)C)CC5)CC4)nc3)C2(C)C)ccc1C#N [Example 716, N-((1r,3r)-3-((5-cyano-6-methylpyridin-2-yl)oxy)-2,2,4,4-tetramethylcyclobutyl)-6-(4-(3-(4-(2-(((S)-1-((2S,4R)-4-hydroxy-2-(((S)-1-(4-(4-methylthiazol-5-yl)phenyl)ethyl)carbam-oyl)pyrrolidin-1-yl)-3,3-dimethyl-1-oxobutan-2-yl)amino)-2-oxoethyl)piperazin-1-yl)propyl)piperazin-1-yl)nicotinamdie]	> 501		Dmax [2]: 26 to 50%
